Experimental data published in the supplement of paper PMC10307832.

Assays:
Assay in all cases: relative viability (nuclei count vs DMSO), 5 days (fraction); higher = more cells survive
BAY61-3606 + Palbociclib = compound: COC1=C(C=C(C=C1)C2=CC3=NC=CN3C(=N2)NC4=C(C=CC=N4)C(=O)N)OC [BAY61-3606] + CC(=O)c1c(C)c2cnc(Nc3ccc(N4CCNCC4)cn3)nc2n(C2CCCC2)c1=O [Palbociclib] (partner 0.5 µM)
How it was run: (§1)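 Values are medians from duplicate plates. Each reflects relative viability, defined as the nuclei count of treated wells over that of vehicle wells. Lung cancer cell lines in 1536-well plates were pin-tool dosed one day after seeding with one drug alone or with a fixed anchor-drug dose plus five library-drug doses (not always all listed) in √10 steps, then fixed, stained and imaged at 4× after 5 days.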

[1] = compound: COc1cccc2c1C(=O)c1c(O)c3c(c(O)c1C2=O)C[C@@](O)(C(=O)CO)C[C@@H]3O[C@H]1C[C@H](N)[C@H](O)[C@H](C)O1 [Doxorubicin] + CC(=O)c1c(C)c2cnc(Nc3ccc(N4CCNCC4)cn3)nc2n(C2CCCC2)c1=O [Palbociclib] (partner 0.5 µM)
How it was run: as §1

BAY61-3606 + Luminespib = compound: COC1=C(C=C(C=C1)C2=CC3=NC=CN3C(=N2)NC4=C(C=CC=N4)C(=O)N)OC [BAY61-3606] + CCNC(=O)c1noc(-c2cc(C(C)C)c(O)cc2O)c1-c1ccc(CN2CCOCC2)cc1 [Luminespib] (partner 0.01 µM)
How it was run: as §1

BAY61-3606 + AZD7762 = compound: COC1=C(C=C(C=C1)C2=CC3=NC=CN3C(=N2)NC4=C(C=CC=N4)C(=O)N)OC [BAY61-3606] + NC(=O)Nc1cc(-c2cccc(F)c2)sc1C(=O)N[C@H]1CCCNC1 [AZD7762] (partner 0.2 µM)
How it was run: as §1

Row | Cell Line | relative viability (BAY61-3606 + Palbociclib; first compound 0.02 µM) | relative viability (BAY61-3606 + Palbociclib; first compound 0.06325 µM) | relative viability (BAY61-3606 + Palbociclib; first compound 0.2 µM) | relative viability (BAY61-3606 + Palbociclib; first compound 0.6325 µM) | relative viability (BAY61-3606 + Palbociclib; first compound 2 µM) | relative viability ([1]; first compound 0.001 µM) | relative viability ([1]; first compound 0.003162 µM) | relative viability ([1]; first compound 0.01 µM) | relative viability ([1]; first compound 0.03162 µM) | relative viability ([1]; first compound 0.1 µM) | relative viability (BAY61-3606 + Luminespib; first compound 0.02 µM) | relative viability (BAY61-3606 + Luminespib; first compound 0.06325 µM) | relative viability (BAY61-3606 + Luminespib; first compound 0.2 µM) | relative viability (BAY61-3606 + Luminespib; first compound 0.6325 µM) | relative viability (BAY61-3606 + Luminespib; first compound 2 µM) | relative viability (BAY61-3606 + AZD7762; first compound 0.02 µM) | relative viability (BAY61-3606 + AZD7762; first compound 0.06325 µM) | relative viability (BAY61-3606 + AZD7762; first compound 0.2 µM) | relative viability (BAY61-3606 + AZD7762; first compound 0.6325 µM) | relative viability (BAY61-3606 + AZD7762; first compound 2 µM)
1 | NCI-H1355 | 0.444 | 0.404 | 0.398 | 0.454 | 0.335 | 0.423 | 0.432 | 0.388 | 0.38 | 0.392 | 0.736 | 0.657 | 0.694 | 0.727 | 0.413 | 0.833 | 0.531 | 0.679 | 0.749 | 0.529
2 | NCI-H2347 | 0.444 | 0.41 | 0.449 | 0.452 | 0.436 | 0.456 | 0.427 | 0.38 | 0.394 | 0.506 | 0.373 | 0.362 | 0.386 | 0.658 | 0.412 | 0.801 | 0.701 | 0.73 | 0.67 | 0.709
3 | NCI-H2342 | 0.469 | 0.48 | 0.517 | 0.602 | 0.63 | 0.547 | 0.557 | 0.548 | 0.496 | 0.496 | 0.895 | 0.719 | 0.711 | 0.751 | 0.797 | 0.459 | 0.496 | 0.416 | 0.726 | 0.586
4 | LC-2-ad | 0.479 | 0.516 | 0.454 | 0.532 | 0.453 | 0.475 | 0.476 | 0.496 | 0.517 | 0.495 | 1.2 | 0.98 | 1.1 | 0.963 | 0.646 | 0.876 | 0.887 | 0.778 | 0.857 | 0.849
5 | NCI-H838 | 0.233 | 0.2 | 0.22 | 0.247 | 0.207 | 0.254 | 0.234 | 0.229 | 0.222 | 0.184 | 0.368 | 0.24 | 0.347 | 0.259 | 0.28 | 1.06 | 0.847 | 0.954 | 0.908 | 0.895
6 | NCI-H1793 | 0.27 | 0.283 | 0.337 | 0.335 | 0.474 | – | 0.303 | 0.304 | 0.258 | 0.324 | 0.177 | 0.159 | – | 0.163 | 0.182 | 0.483 | 0.277 | 0.448 | 0.636 | 0.504
7 | NCI-H358 | 0.123 | 0.143 | 0.136 | 0.125 | 0.101 | 0.129 | 0.141 | 0.118 | 0.0838 | 0.1 | 0.428 | 0.249 | 0.322 | 0.289 | 0.205 | 0.489 | 0.502 | 0.469 | 0.468 | 0.261
8 | NCI-H2087 | 0.234 | 0.264 | 0.221 | 0.28 | 0.249 | 0.259 | 0.216 | 0.235 | 0.176 | 0.227 | 0.188 | 0.132 | 0.181 | 0.196 | 0.139 | 1.31 | 1.43 | 1.35 | 1.23 | 0.959
9 | RERF-LC-KJ | 1.03 | 1.2 | 1.03 | 1.18 | 0.924 | 1.07 | 1.15 | 0.921 | 0.542 | 0.653 | 1.22 | 1.45 | 1.2 | 1.3 | 0.849 | 1.07 | 0.846 | 1.03 | 0.872 | 0.869
10 | NCI-H647 | 0.386 | 0.358 | 0.328 | 0.401 | 0.235 | 0.403 | 0.492 | 0.412 | 0.15 | 0.239 | 0.205 | 0.16 | 0.21 | 0.221 | 0.0962 | 0.433 | 0.393 | 0.383 | 0.444 | 0.324
11 | LU99A | 0.448 | 0.395 | 0.451 | 0.417 | 0.271 | 0.449 | 0.521 | 0.44 | 0.41 | 0.417 | 0.347 | 0.256 | 0.407 | 0.248 | 0.209 | 0.41 | 0.306 | 0.358 | 0.399 | 0.334
12 | NCI-H460 | 0.171 | 0.126 | 0.256 | 0.257 | 0.086 | 0.103 | 0.108 | 0.0853 | 0.041 | 0.007 | 0.0381 | 0.0387 | 0.0289 | 0.0296 | 0.0322 | 0.63 | 0.646 | 0.739 | 0.631 | 0.766
13 | NCI-H650 | 0.34 | 0.337 | 0.371 | 0.365 | 0.306 | 0.371 | 0.362 | 0.325 | 0.293 | 0.326 | 0.925 | 0.751 | 0.766 | 0.927 | 0.652 | 1.18 | 0.887 | 0.889 | 0.998 | 0.999
14 | PC-14 | 0.455 | 0.546 | 0.468 | 0.514 | 0.453 | 0.532 | 0.501 | 0.312 | 0.194 | 0.0531 | 0.191 | – | 0.171 | 0.173 | 0.129 | 0.418 | 0.268 | 0.35 | 0.32 | 0.342
15 | PC-3 [JPC-3] | 0.531 | 0.512 | 0.529 | 0.521 | 0.517 | 0.526 | 0.585 | 0.544 | 0.518 | 0.522 | – | 0.81 | 0.746 | 0.659 | 0.709 | 0.675 | 0.794 | 0.809 | 0.801 | 0.752
16 | NCI-H1944 | 0.344 | 0.313 | 0.31 | 0.338 | 0.213 | 0.374 | 0.293 | 0.337 | 0.272 | 0.353 | 0.802 | 0.674 | 0.734 | 0.688 | 0.282 | 0.477 | 0.533 | 0.635 | 0.592 | 0.485
